# Measurements reported in the supplement of paper PMC10307832.
# Experiments:
# Assay in all cases: relative viability (nuclei count vs DMSO), 5 days (fraction); higher = more cells survive
# Adavosertib + Luminespib = compound: C=CCn1c(=O)c2cnc(Nc3ccc(N4CCN(C)CC4)cc3)nc2n1-c1cccc(C(C)(C)O)n1 [Adavosertib] + CCNC(=O)c1noc(-c2cc(C(C)C)c(O)cc2O)c1-c1ccc(CN2CCOCC2)cc1 [Luminespib] (partner 0.01 µM)
# Summary of the method: (§1)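 After 5 days of treatment, lung cancer cells in 1536-well plates were fixed and stained in a single step (final 0.05% Triton X-100, 1% formaldehyde, 1 ug/ml Hoechst) and their nuclei counted on 4× images. Treatment had been applied by pin tool the day after seeding as one drug alone or as a fixed anchor-drug dose with five library-drug doses (not always all listed) in √10 steps. Relative viability is the nuclei count of treated wells divided by that of vehicle wells, and values are medians of duplicate plates.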
# Adavosertib + Pictilisib = compound: C=CCn1c(=O)c2cnc(Nc3ccc(N4CCN(C)CC4)cc3)nc2n1-c1cccc(C(C)(C)O)n1 [Adavosertib] + CS(=O)(=O)N1CCN(Cc2cc3nc(-c4cccc5[nH]ncc45)nc(N4CCOCC4)c3s2)CC1 [Pictilisib] (partner 1 µM)
# Summary of the method: as §1
# Nelarabine + OSI-027 = compound: COc1nc(N)nc2c1ncn2[C@@H]1O[C@H](CO)[C@@H](O)[C@@H]1O [Nelarabine] + COc1cccc2cc(-c3nc([C@H]4CC[C@H](C(=O)O)CC4)n4ncnc(N)c34)[nH]c12 [OSI-027] (partner 0.5 µM)
# Summary of the method: as §1
# Nelarabine + AZD7762 = compound: COc1nc(N)nc2c1ncn2[C@@H]1O[C@H](CO)[C@@H](O)[C@@H]1O [Nelarabine] + NC(=O)Nc1cc(-c2cccc(F)c2)sc1C(=O)N[C@H]1CCCNC1 [AZD7762] (partner 0.2 µM)
# Summary of the method: as §1
Cell Line,relative viability (Adavosertib + Luminespib; first compound 0.01 µM),relative viability (Adavosertib + Luminespib; first compound 0.03162 µM),relative viability (Adavosertib + Luminespib; first compound 0.1 µM),relative viability (Adavosertib + Luminespib; first compound 0.3162 µM),relative viability (Adavosertib + Pictilisib; first compound 0.01 µM),relative viability (Adavosertib + Pictilisib; first compound 0.03162 µM),relative viability (Adavosertib + Pictilisib; first compound 0.1 µM),relative viability (Adavosertib + Pictilisib; first compound 0.3162 µM),relative viability (Nelarabine + OSI-027; first compound 0.01 µM),relative viability (Nelarabine + OSI-027; first compound 0.03162 µM),relative viability (Nelarabine + OSI-027; first compound 0.1 µM),relative viability (Nelarabine + OSI-027; first compound 0.3162 µM),relative viability (Nelarabine + OSI-027; first compound 1 µM),relative viability (Nelarabine + AZD7762; first compound 0.01 µM),relative viability (Nelarabine + AZD7762; first compound 0.03162 µM),relative viability (Nelarabine + AZD7762; first compound 0.1 µM),relative viability (Nelarabine + AZD7762; first compound 0.3162 µM),relative viability (Nelarabine + AZD7762; first compound 1 µM)
NCI-H520,0.227,0.214,0.243,0.213,0.288,0.286,0.381,0.269,0.321,0.233,0.233,0.395,0.264,,,,,
HCC-44,0.982,1.01,0.968,1.3,0.518,0.647,0.526,0.62,0.568,0.484,0.607,0.518,0.52,1.01,0.951,1.05,0.999,0.955
NCI-H2087,0.208,0.187,0.194,0.195,0.86,0.947,0.833,0.923,0.568,0.639,0.489,0.676,0.517,1.72,1.42,1.37,1.51,1.21
CAL-12T,0.312,0.102,0.601,0.23,,0.396,0.412,0.274,0.616,0.874,0.687,0.635,0.583,0.721,0.642,0.685,0.58,0.561
NCI-H1355,0.671,0.644,0.617,0.631,0.476,0.404,0.45,0.378,0.481,0.434,0.367,0.363,0.382,0.935,0.608,0.657,0.804,0.822
HARA,0.781,0.795,0.845,0.366,0.409,0.461,0.374,0.269,0.645,0.583,0.439,0.671,0.487,0.426,0.284,0.307,0.441,0.373
NCI-H2085,0.61,0.411,0.46,0.35,0.491,0.451,0.41,0.519,0.945,0.849,0.664,0.797,0.748,1.11,1.04,0.996,1.12,0.987
IA-LM,,,,,0.363,0.404,0.418,0.365,,,,,,,,,,
LCLC-103H,0.865,1.05,0.892,0.837,0.544,0.517,0.561,0.516,0.499,0.322,0.459,0.464,0.486,0.829,0.75,0.71,0.855,0.838
NCI-H2405,0.556,0.805,0.773,0.69,0.466,0.412,0.437,0.373,0.722,0.66,0.471,0.632,0.624,0.837,0.647,0.71,0.736,0.81
NCI-H1666,0.977,0.946,0.994,1.02,0.5,0.324,0.309,0.403,0.874,0.955,0.89,0.915,0.908,0.844,0.877,0.819,0.84,0.795
Calu-6,,,,,0.922,0.875,0.788,0.333,,,,,,,,,,
BEN,0.195,0.501,0.413,0.389,0.575,0.682,0.587,0.558,0.328,0.293,0.541,0.296,0.301,0.746,0.683,0.711,0.683,0.674
201T,1.1,1.04,1.05,1.09,0.668,0.683,0.625,0.654,0.85,0.638,0.762,1.15,0.85,0.774,0.547,0.609,0.653,0.612
NCI-H322M,0.764,0.789,0.57,0.398,,0.521,0.504,0.421,0.575,0.544,0.431,0.516,0.612,0.559,0.553,0.522,0.595,0.507
NCI-H1792,0.595,0.446,0.456,0.569,0.294,0.224,0.233,0.272,,0.773,0.75,0.904,1.13,0.854,0.69,1.1,0.68,0.6
NCI-H358,0.28,0.307,0.454,0.359,0.356,0.312,0.353,0.285,1,0.816,0.767,1.09,0.989,0.605,0.395,0.386,0.501,0.586
NCI-H2347,0.467,0.382,0.723,0.292,0.567,0.61,0.297,0.762,0.505,0.431,0.409,0.389,0.369,0.915,0.658,0.718,0.506,0.769
NCI-H1793,0.148,0.21,0.179,0.156,0.385,0.295,0.318,0.248,0.327,0.238,0.247,0.372,0.326,0.557,,0.319,0.748,0.436
LU99A,0.314,0.188,0.221,0.198,0.341,0.303,0.354,0.241,0.315,0.295,0.307,0.309,0.291,0.365,0.284,0.335,0.312,0.424
NCI-H661,0.898,0.924,1.06,0.557,0.33,0.415,0.352,0.322,0.53,0.652,0.738,0.775,0.651,,,,,
SW 900,,0.195,0.169,0.156,,,,,0.569,0.551,0.565,0.452,0.655,0.636,0.569,0.556,0.645,0.535
HCC-827,0.598,0.774,0.42,0.667,0.985,1.05,1.08,0.937,0.741,0.738,0.76,0.595,0.65,0.203,0.208,0.158,0.175,0.163

Cell Line,relative viability (Adavosertib + Luminespib; first compound 0.01 µM),relative viability (Adavosertib + Luminespib; first compound 0.03162 µM),relative viability (Adavosertib + Luminespib; first compound 0.1 µM),relative viability (Adavosertib + Luminespib; first compound 0.3162 µM),relative viability (Adavosertib + Pictilisib; first compound 0.01 µM),relative viability (Adavosertib + Pictilisib; first compound 0.03162 µM),relative viability (Adavosertib + Pictilisib; first compound 0.1 µM),relative viability (Adavosertib + Pictilisib; first compound 0.3162 µM),relative viability (Nelarabine + OSI-027; first compound 0.01 µM),relative viability (Nelarabine + OSI-027; first compound 0.03162 µM),relative viability (Nelarabine + OSI-027; first compound 0.1 µM),relative viability (Nelarabine + OSI-027; first compound 0.3162 µM),relative viability (Nelarabine + OSI-027; first compound 1 µM),relative viability (Nelarabine + AZD7762; first compound 0.01 µM),relative viability (Nelarabine + AZD7762; first compound 0.03162 µM),relative viability (Nelarabine + AZD7762; first compound 0.1 µM),relative viability (Nelarabine + AZD7762; first compound 0.3162 µM),relative viability (Nelarabine + AZD7762; first compound 1 µM)
A-427,0.877,1,1.05,0.634,0.735,0.653,0.684,0.798,0.489,0.42,0.373,0.443,0.52,0.781,0.62,0.599,0.62,0.572
EBC-1,,,,,0.387,0.429,0.382,0.286,,,,,,,,,,
NCI-H2009,1.01,1.07,1.06,0.888,0.766,0.847,0.68,0.395,0.767,0.643,0.546,0.696,0.71,,,,,
EPLC-272H,0.225,0.549,0.196,0.182,0.277,0.414,0.303,0.295,0.28,0.248,0.269,0.311,0.233,0.196,0.209,0.305,0.247,0.297
HCC-366,,,,,0.155,0.143,0.217,0.172,1.3,0.737,0.878,1.28,0.973,0.371,0.217,0.228,0.411,0.287
SW 1573,0.177,0.226,0.192,0.198,0.482,0.525,0.58,0.343,1.19,0.836,0.548,0.701,0.619,,,,,
NCI-H2342,0.636,0.676,0.788,0.784,,,,,0.734,0.533,0.564,0.75,0.626,0.508,0.5,0.439,0.555,0.464
NCI-H1648,,,,,,,,,0.237,0.282,0.264,0.256,0.281,,0.597,,0.638,0.664
COR-L 105,1.03,0.698,0.962,0.774,0.415,0.384,0.356,0.393,0.781,0.82,0.531,0.616,0.715,,,,,
NCI-H1563,0.562,0.544,0.507,0.473,0.631,0.62,0.609,0.625,0.847,0.722,0.785,0.739,0.863,,,,,
UMC-11,1.02,0.936,1.15,1,0.817,0.723,0.743,0.755,0.655,0.569,0.586,0.476,0.503,,,,,
NCI-H1650,0.2,0.207,0.213,0.145,0.652,0.579,0.506,0.3,0.713,0.619,0.458,0.767,0.61,,,,,
NCI-H1623,0.354,0.492,0.453,0.468,,,,,0.436,0.374,0.392,0.379,0.391,,,,,
NCI-H2023,0.8,0.771,0.441,0.31,0.251,0.21,0.197,0.143,0.545,0.397,0.341,0.416,0.354,,,,,
COR-L23,0.614,0.61,0.667,0.232,0.665,0.636,0.722,0.266,0.911,0.611,0.854,0.878,0.759,,,,,
A549,,,,,0.505,0.513,0.554,0.382,,,,,,,,,,
NCI-H522,,1.04,1.24,1.2,,,,,0.758,0.76,0.713,0.722,0.687,0.844,1.02,0.813,0.86,0.949
HCC-78,,,,,0.194,0.221,0.255,0.171,0.306,0.35,,0.385,0.372,0.708,0.673,,0.764,0.564
SK-LU-1,0.19,0.201,0.249,0.169,0.649,0.532,0.456,0.242,0.287,0.267,0.364,0.396,0.327,,,,,
NCI-H1703,,,,,0.297,0.227,0.179,0.127,,,,,,0.17,0.0897,0.132,0.131,0.104
NCI-H2228,0.186,0.159,0.132,0.134,0.695,0.45,0.448,0.305,0.949,0.635,,0.784,0.563,,,,,
NCI-H1299,,,,,0.982,0.66,0.541,0.123,,,,,,,,,,
SK-MES-1,0.604,0.723,0.559,0.236,0.307,0.343,0.321,0.213,0.698,0.579,0.62,0.683,0.611,,,,,
